Measurements as given in patent US12145927B2 (BRISTOL-MYERS SQUIBB COMPANY, priority 2018, dated 2024).

Columns and labels:
human IDO1 = target: T1, human IDO1 (Homo sapiens, UniProt P14902); test: IDO inhibition assay in human IDO1/HEK293 cells (IDO1 HEK Human); format: cell-based; conditions: HEK293 cells stably expressing human IDO1; 20 hours incubation; absorbance at 490 nm after Ehrlich reagent
T1 construct: expressed in transfected cells
Procedure, shortened: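 Kynurenine output of stably IDO1-transfected HEK293 cells was measured by absorbance at 490 nm after mixing supernatant with 0.2% Ehrlich reagent, following TCA stop (0.2% final, 50° C., 30 min). Cells were incubated 20 hours with compound. Inhibition was scaled between DMSO and 500 nM reference standard.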

[1] = target: T2, indoleamine 2,3-dioxygenase (IDO) (Homo sapiens, UniProt P14902); test: HeLa cell-based indoleamine 2,3-dioxygenase (IDO) assay (IDO1 HeLa); conditions: HeLa cells, IFNγ 25 ng/mL, 48 hour incubation; kynurenine by absorbance at 480 nm
T2 construct: replaced with media containing IFNγ (#285-IF/CF, R&D Systems) at a final concentration of 25 ng/mL; endogenous in cells; host or cells: HeLa (ATCC CCL-2), IFNγ-stimulated
T2 sequence (P14902 whole entry): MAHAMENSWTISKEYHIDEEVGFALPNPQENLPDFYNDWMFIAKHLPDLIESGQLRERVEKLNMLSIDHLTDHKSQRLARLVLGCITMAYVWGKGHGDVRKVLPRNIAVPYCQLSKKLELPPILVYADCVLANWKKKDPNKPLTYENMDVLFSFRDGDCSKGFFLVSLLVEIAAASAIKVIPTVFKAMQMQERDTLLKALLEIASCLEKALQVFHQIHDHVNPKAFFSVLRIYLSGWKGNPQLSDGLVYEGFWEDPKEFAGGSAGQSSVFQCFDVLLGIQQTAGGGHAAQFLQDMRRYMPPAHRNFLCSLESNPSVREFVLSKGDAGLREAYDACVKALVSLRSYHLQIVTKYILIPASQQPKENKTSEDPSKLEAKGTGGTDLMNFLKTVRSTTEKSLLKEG
Protocol: Assessment of inhibitor activity in HeLa cell-based indoleamine 2,3-dioxygenase (IDO) assay:
HeLa (ATCC® CCL-2) cells were obtained from the ATCC® and cultured in Dulbecco's Modified Eagle Medium supplemented with 4.5 g/L glucose, […] (#10-013-CV, Corning), 2 mM L-alanyl-L-glutamine dipeptide (#35050-061, Gibco), 100U/mL penicillin, 100 μg/mL streptomycin (#SV30010, HyClone) and 10% fetal bovine serum (#SH30071.03 HyClone). Cells were maintained in a humidified incubator at 37° C. in 5% CO2.
IDO activity was assessed as a function of kynurenine production as follows: HeLa cells were seeded in a 96-well culture plate at a density of 5,000 cells/well and allowed to equilibrate overnight. After 24 hours, the media was aspirated and replaced with media containing IFNγ (#285-IF/CF, R&D Systems) at a final concentration of 25 ng/mL. A serial dilution of each test compound was added to the cells in a total volume of 200 μL of culture medium. After a further 48 hour incubation, 170 μL of supernatant was transferred from each well to a fresh 96-well plate. 12.1 μL of 6.1N trichloroacetic acid (#T0699, Sigma-Aldrich) was added to each well and mixed, followed by incubation at 65° C. for 20 minutes to hydrolyze N-formylkynurenine, the product of indoleamine 2,3-dioxygenase, to kynurenine. The reaction mixture was then centrifuged for 10 mins at 500×g to sediment the precipitate. 100 μL of the supernatant was transferred from each well to a fresh 96-well plate. 100 μl of 2% (w/v) p-dimethylaminobenzaldehyde (#15647-7, Sigma-Aldrich) in acetic acid (#A6283, Sigma-Aldrich) was added to each well mixed and incubated at RT for 20 mins. Kynurenine concentrations were determined by measuring absorbance at 480 nm and calibrating against an L-kynurenine (#K8625, Sigma-Aldrich) standard curve using a SPECTRAMAX® M2e microplate reader (Molecular Devices). The percentage activity at each inhibitor concentration was determined and IC50 values assessed using nonlinear regression.

T1 sequence (P14902 whole entry): as above

Row | Compound | IC50 (human IDO1) [nM] | IC50 [1] [nM]
1 | Cc1ccc(NC(=O)Nc2cc(-c3ccccc3-c3nnn[nH]3)cc3c2OCCCC3C(C)C)cc1 (single isomer, unassigned) [24 (En. 2), 1-(7-(2-(1H-tetrazol-5-yl)phenyl)-5-isopropyl-2,3,4,5-tetrahydrobenzo[b]oxepin-9-yl)-3-(p-tolyl)urea] | 6.3 | 161
2 | Cc1ccc(NC(=O)Nc2cc(-c3ccccc3-c3noc(=O)[nH]3)cc3c2OCCCC3c2ccccc2)cc1 (single isomer, unassigned) [Example 67, 1-(7-(2-(5-oxo-4,5-dihydro-1,2,4-oxadiazol-3-yl)phenyl)-5-phenyl-2,3,4,5-tetrahydrobenzo[b]oxepin-9-yl)-3-(p-tolyl)urea] | 1.1 | 1
3 | Cc1ccc(NC(=O)Nc2cc(-c3ccccc3-c3nnn[nH]3)cc3c2OCCCC3C(C)C)cc1 (single isomer, unassigned) [24 (En. 1), 1-(7-(2-(1H-tetrazol-5-yl)phenyl)-5-isopropyl-2,3,4,5-tetrahydrobenzo[b]oxepin-9-yl)-3-(p-tolyl)urea] | 0.98 | 28.9
4 | Cc1ccc(NC(=O)Nc2cc(-c3ccccc3-c3nnn[nH]3)cc3c2OCCCC3C2CC2)cc1 (single isomer, unassigned) [36 (En. 2), 1-(7-(2-(1H-tetrazol-5-yl)phenyl)-5-cyclopropyl-2,3,4,5-tetrahydrobenzo[b]oxepin-9-yl)-3-(p-tolyl)urea] | 2.4 | 3.6
5 | O=C(Nc1ccc(Br)cc1)Nc1cc(-c2ccccc2-c2nnn[nH]2)cc2c1OCC=CC2c1ccccc1 (racemic) [Example 106, (+/−)-1-(7-(2-(1H-tetrazol-5-yl)phenyl)-5-phenyl-2,5-dihydrobenzo[b]oxepin-9-yl)-3-(4-bromophenyl)urea] |  | 30.1
6 | CC1=CC(c2ccccc2)c2cc(-c3ccccc3-c3nnn[nH]3)cc(NC(=O)Nc3ccc(C)cc3)c2OC1 (racemic) [Example 92, (+/−)-1-(7-(2-(1H-tetrazol-5-yl)phenyl)-3-methyl-5-phenyl-2,5-dihydrobenzo[b]oxepin-9-yl)-3-(p-tolyl)urea] |  | 7.2
7 | Cc1ccc(NC(=O)Nc2cc(-c3ccccc3-c3nnn[nH]3)cc3c2OCC(F)(F)CC3c2ccccc2)cc1 (racemic) [Example 110, (+/−) 1-(7-(2-(1H-tetrazol-5-yl)phenyl)-3,3-difluoro-5-phenyl-2,3,4,5-tetrahydrobenzo[b]oxepin-9-yl)-3-(p-tolyl)urea] | 50.2 | 24.7
8 | Cc1ccc(NC(=O)Nc2cc(-c3ccccc3-c3nnn[nH]3)cc3c2OCCCC3C2CC2)cc1 (single isomer, unassigned) [36 (En. 1), 1-(7-(2-(1H-tetrazol-5-yl)phenyl)-5-cyclopropyl-2,3,4,5-tetrahydrobenzo[b]oxepin-9-yl)-3-(p-tolyl)urea] | 10.4 | 14.9

Continued by falling IC50 [1], values first:

Row | IC50 (human IDO1) [nM] | IC50 [1] [nM] | Compound
9 |  | 24.2 | Fc1cc(Nc2cc(-c3ccccc3-c3nnn[nH]3)cc3c2OCCCC3c2ccccc2)ccc1Cl (single isomer, unassigned) [Example 72, 7-(2-(1H-tetrazol-5-yl)phenyl)-N-(4-chloro-3-fluorophenyl)-5-phenyl-2,3,4,5-tetrahydrobenzo[b]oxepin-9-amine]
10 |  | 14.5 | CCc1ccc(NC(=O)Nc2cc(-c3ccccc3-c3nnn[nH]3)cc3c2OCC=CC3CCC(F)(F)F)cc1 (racemic) [Example 107, (+/−)-1-(7-(2-(1H-tetrazol-5-yl)phenyl)-5-(3,3,3-trifluoropropyl)-2,5-dihydrobenzo[b]oxepin-9-yl)-3-(4-ethylphenyl)urea]
11 | 18.7 | 13.9 | Cc1ccc(NC(=O)Nc2cc(-c3ccccc3-c3nn[nH]n3)cc3c2OCCCC3c2ccccc2)cc1 (centres unmarked) [Example 1, 1-(7-(2-(1H-tetrazol-5-yl)phenyl)-5-phenyl-2,3,4,5-tetrahydrobenzo[b]oxepin-9-yl)-3-(p-tolyl)urea]
12 |  | 10.9 | Cc1ccc(NC(=O)Nc2cc(-c3ccccc3-c3nn[nH]n3)cc3c2OCC=CC3c2ccccc2)cc1 (racemic) [Example 87, (+/−)-1-(7-(2-(1H-tetrazol-5-yl)phenyl)-5-phenyl-2,5-dihydrobenzo[b]oxepin-9-yl)-3-(p-tolyl)urea]
13 | 7.7 | 5.1 | Cc1ccc(-c2nnn[nH]2)c(-c2cc(Nc3ccc4nc(C)sc4c3)c3c(c2)C(c2ccccc2)CCCO3)c1 (single isomer, unassigned) [Example 74, 2-methyl-N-(7-(5-methyl-2-(1H-tetrazol-5-yl)phenyl)-5-phenyl-2,3,4,5-tetrahydrobenzo[b]oxepin-9-yl)benzo[d]thiazol-6-amine]
14 | 2 | 2.1 | COCC(CC(=O)O)c1cc(Nc2ccc(C#N)cc2)c2c(c1)C(C1CC1)CCCO2 (single isomer, unassigned) [131 (dia. 2), 3-(9-(4-Cyanophenylamino)-5-cyclopropyl-2,3,4,5-tetrahydrobenzo[b]oxepin-7-yl)-4-methoxybutanoic acid]
